Test results taken from US12617756B2 (ABIVAX, priority 2019, dated 2026).

These compounds were tested on RSV A2 (assay: Screening for RSV inhibition using Viral ToxGlo assay (cytopathic effect inhibition in HEp-2 cells)). Details: human respiratory syncytial virus; RSV A2 in HEp-2 cells, MOI 0.5, 72h p.i., cytopathic effect inhibition relative to virus control, Viral ToxGlo luminescence.
Format: cell-based, Respiratory Syncytial Virus (RSV)
Procedure: Protocol for Screening Antiviral Compounds for RSV Inhibition and Cytotoxicity Using Viral ToxGlo Assay
HEp-2 cells were maintained in Eagle's minimum essential medium (EMEM) with Earle's BSS adjusted to contain 2 mM L-glutamine, 10% fetal bovine serum, 100 U/ml penicillin and 100 µg/ml streptomycin. For the purposes of the screening assay they were grown to 90% confluency, trypsinized and recovered. The trypsin was neutralised with cell culture media and cells were centrifuged at 150×g for 5 minutes before discarding the supernatant and resuspending cell pellet in assay media (EMEM with Earle's BSS adjusted to contain 2 mM L-glutamine, 2% fetal bovine serum and 100 U/ml penicillin and 100 µg/ml streptomycin). The cells were seeded into white clear-bottomed cell culture plates at a density of 1.5×10^4 cells/well in 50 μl and 4×10^3 cells/well in 25 μl for 96 well plates and 384 well plates respectively. For the media/background control column assay media only was added. Cell plates were placed in a humid chamber and incubated overnight at 37° C./5% CO2. After overnight incubation cells were checked for confluency and healthy appearance.
Test articles were made up at 10× test concentration in a maximum DMSO concentration of 10% (final assay concentration maximal 1% DMSO) and added to the cell plates in volumes of […] for 96 well plates and 5 μl for 384 well plates. For cell control and virus control wells the test article solvent only was added. Virus or assay media for cytotoxicity test wells and media/cell control wells was added immediately after test articles at an MOI of […] for 96 and 384 well plates respectively. Virus suspension was prepared by thawing RSV A2 frozen stocks and diluting to the required concentration of plaque forming units in assay media on ice.
Cell plates were further incubated inside a humid chamber for 72h p.i at 37° C./5% CO2. After the incubation period cells were observed under the microscope to check for characteristic cytopathic effect in virus control wells and healthy cells in the cell control wells. After plates were adjusted to room temperature 20/40 μl Viral ToxGlo (Promega) was added to each well of the 384/96 well cell plates. Plates were incubated at room temperature, protected from light on a plate rocker for 20 minutes before measuring the luminescence on a spectrophotometer (Biotek Synergy HTX).

Structure (SMILES)	EC50 [nM]
CC(C)NC(=O)c1cccc(Nc2ccc(C(=O)/N=C3\NCCN3C3CC3)cc2C2CC2)c1 [Compound 43, 3-cyclopropyl-N-[(2E)-1-cyclopropylimidazolidin-2-ylidene]-4-({3-[(propan-2-yl)carbamoyl]phenyl}amino)benzamide]	79.8
CC(C)CCNC(=O)c1cccc(Nc2ccc(C(=O)N=C3NCCN3)cc2C(C)(C)O)c1 [Compound 44, 3-(2-hydroxypropan-2-yl)-N-[(2E)-imidazolidin-2-ylidene]-4-({3-[(3-methylbutyl)carbamoyl]phenyl}amino)benzamide]	90.4
CC(C)(O)c1cc(C(=O)N=C2NCCN2)ccc1Nc1cccc(C(=O)N2CCOCC2)c1Cl [Compound 45, 4-{[2-chloro-3-(morpholine-4-carbonyl)phenyl]amino}-3-(2-hydroxypropan-2-yl)-N-(imidazolidin-2-ylidene)benzamide]	91.5
CC(=O)N1CCN/C1=N\C(=O)c1ccc(Nc2cccc(OCCCC3CCCCC3)c2)c(C2CC2)c1 [Compound 46, N-[(2E)-1-acetylimidazolidin-2-ylidene]-4-{[3-(3-cyclohexylpropoxy)phenyl]amino}-3-cyclopropylbenzamide]	104
CC1(NC(=O)c2cc(F)cc(Nc3ccc(C(=O)N=C4NCCN4)cc3C3CC3)c2)CC1 [Compound 47, 3-cyclopropyl-4-({3-fluoro-5-[(1-methylcyclopropyl)carbamoyl]phenyl}amino)-N-[(2Z)-imidazolidin-2-ylidene]benzamide]	113
CC(C)(C)c1cc(C(=O)N=C2NCCN2)ccc1Nc1cccc(C(=O)NCCC2CCOC2)c1 (centres unmarked) [Compound 48, 3-tert-butyl-N-[(2E)-imidazolidin-2-ylidene]-4-[(3-{[2-(oxolan-3-yl)ethyl]carbamoyl}phenyl)amino]benzamide]	117
CC(C)NC(=O)c1cccc(Nc2ccc(C(=O)/N=C3\NCC(=O)N3)cc2C(C)(C)C)c1 [Compound 49, 3-tert-butyl-N-[(2E)-4-oxoimidazolidin-2-ylidene]-4-({3-[(propan-2-yl)carbamoyl]phenyl}amino)benzamide]	118
O=C(N=C1NCCN1)c1ccc(Nc2cccc(C(=O)NC3CCOCC3)c2Cl)c(C2CC2)c1 [Compound 50, 4-({2-chloro-3-[(oxan-4-yl)carbamoyl]phenyl}amino)-3-cyclopropyl-N-[(2E)-imidazolidin-2-ylidene]benzamide]	136
O=C(N=C1NCCN1)c1ccc(Nc2cccc(OCC3COCCO3)c2)c(C2CCCC2)c1 (centres unmarked) [Compound 51, 3-cyclopentyl-4-({3-[(1,4-dioxan-2-yl)methoxy]phenyl}amino)-N-[(2E)-imidazolidin-2-ylidene]benzamide]	140
CC(C)(C)c1cc(C(=O)N=C2NCCN2)ccc1Nc1cccc(OCC2COCCO2)c1 (centres unmarked) [Compound 52, 3-tert-butyl-4-({3-[(1,4-dioxan-2-yl)methoxy]phenyl}amino)-N-[(2E)-imidazolidin-2-ylidene]benzamide]	142
O=C(N=C1NCCN1)c1ccc(Nc2cccc(C(=O)NC3(C(F)(F)F)CC3)c2)c(C2CC2)c1 [Compound 53, 3-cyclopropyl-N-[(2Z)-imidazolidin-2-ylidene]-4-[(3-{[1-(trifluoromethyl)cyclopropyl]carbamoyl}phenyl)amino]benzamide]	153
CC(C)NC(=O)c1ccccc1Nc1ccc(C(=O)N=C2NCCN2)cc1C(C)(C)C [Compound 54, 3-tert-butyl-N-[(2E)-imidazolidin-2-ylidene]-4-({2-[(propan-2-yl)carbamoyl]phenyl}amino)benzamide]	166
CC(C)CCNC(=O)c1ccnc(Nc2ccc(C(=O)N=C3NCCN3)cc2C(C)(C)C)c1 [Compound 55, 2-[(2-tert-butyl-4-{[(2E)-imidazolidin-2-ylidene]carbamoyl}phenyl)amino]-N-(3-methylbutyl)pyridine-4-carboxamide]	168
CC(C)CNC(=O)c1ccccc1Nc1ccc(C(=O)N=C2NCCN2)cc1C(C)(C)C [Compound 56, 3-tert-butyl-N-[(2E)-imidazolidin-2-ylidene]-4-({2-[(2-methylpropyl)carbamoyl]phenyl}amino)benzamide]	174
Cc1c(Nc2ccc(C(=O)N=C3NCCN3)cc2C2CC2)cccc1-c1ncc(Cl)[nH]1 [Compound 57, 4-{[3-(5-chloro-1H-imidazol-2-yl)-2-methylphenyl]amino}-3-cyclopropyl-N-[(2Z)-imidazolidin-2-ylidene]benzamide]	200
O=C(N=C1NCCN1)c1ccc(Nc2cccc(C(=O)NCCC3CCOCC3)c2)c(C2CC2)c1 [Compound 58, 3-cyclopropyl-N-[(2E)-imidazolidin-2-ylidene]-4-[(3-{[2-(oxan-4-yl)ethyl]carbamoyl}phenyl)amino]benzamide]	207
CC(C)NC(=O)c1cccc(Nc2ccc(C(=O)N=C3NCCN3)cc2C2CCOC2)c1 (centres unmarked) [Compound 59, N-[(2E)-imidazolidin-2-ylidene]-3-(oxolan-3-yl)-4-({3-[(propan-2-yl)carbamoyl]phenyl}amino)benzamide]	237
CC(C)=CCn1nnnc1-c1cccc(Nc2ccc(C(=O)N=C3NCCN3)cc2C2CC2)c1 [Compound 60, 3-cyclopropyl-N-[(2Z)-imidazolidin-2-ylidene]-4-({3-[1-(3-methylbut-2-en-1-yl)-1H-1,2,3,4-tetrazol-5-yl]phenyl}amino)benzamide]	241
CC(C)NC(=O)c1cccc(Nc2ccc(C(=O)/N=C3\NCC(=O)N3C)cc2C2CC2)c1 [Compound 61, 3-cyclopropyl-N-[(2E)-1-methyl-5-oxoimidazolidin-2-ylidene]-4-({3-[(propan-2-yl)carbamoyl]phenyl}amino)benzamide]	516
CC(C)CCNC(=O)c1ccccc1Nc1ccc(C(=O)N=C2NCCN2)cc1C1CC1 [Compound 62, 3-cyclopropyl-N-[(2E)-imidazolidin-2-ylidene]-4-({2-[(3-methylbutyl)carbamoyl]phenyl}amino)benzamide]	641
CC(C)C(=O)Nc1cccc(Nc2ccc(C(=O)N=C3NCCN3)cc2C2CCOC2)c1 (centres unmarked) [Compound 63, N-[(2E)-imidazolidin-2-ylidene]-4-{[3-(2-methylpropanamido)phenyl]amino}-3-(oxolan-3-yl)benzamide]	727
Cc1c(Nc2ccc(C(=O)N=C3NCCN3)cc2C2CC2)cccc1C(=O)NC1(C#N)CC1 [Compound 64, 4-({3-[(1-cyanocyclopropyl)carbamoyl]-2-methylphenyl}amino)-3-cyclopropyl-N-[(2Z)-imidazolidin-2-ylidene]benzamide]	950
CC(C)NC(=O)c1cccc(Nc2ccc(C(=O)N=C3NCCN3)cc2C2CCOCC2)c1 [Compound 69, N-[(2Z)-imidazolidin-2-ylidene]-3-(oxan-4-yl)-4-({3-[(propan-2-yl)carbamoyl]phenyl}amino)benzamide]	1130
CC(C)NC(=O)c1ccccc1Nc1ccc(C(=O)N=C2NCCN2)cc1C1CC1 [Compound 70, 3-cyclopropyl-N-[(2E)-imidazolidin-2-ylidene]-4-({2-[(propan-2-yl)carbamoyl]phenyl}amino)benzamide]	1150
CC(C)NC(=O)c1cccc(Nc2ccc(C(=O)N=C3N(C)CCN3C)cc2C(C)(C)C)c1 [Compound 71, 3-tert-butyl-N-[(2Z)-1,3-dimethylimidazolidin-2-ylidene]-4-({3-[(propan-2-yl)carbamoyl]phenyl}amino)benzamide]	1170
CC(C)C(=O)Nc1cccc(Nc2ccc(C(=O)N=C3NCCN3)cc2Cl)c1 [Compound 72, 3-chloro-N-[(2E)-imidazolidin-2-ylidene]-4-{[3-(2-methylpropanamido)phenyl]amino}benzamide]	1230
O=C(N=C1NCCN1)c1ccc(Nc2cc(F)cc(C(=O)N3CCOCC3)c2)c(C2CC2)c1 [Compound 73, 3-cyclopropyl-4-{[3-fluoro-5-(morpholine-4-carbonyl)phenyl]amino}-N-[(2Z)-imidazolidin-2-ylidene]benzamide]	1290
CC(C)(C)c1cc(C(=O)N=C2NCCN2)ccc1Nc1cc(C(=O)NCCC2CCOCC2)ccn1 [Compound 74, 2-[(2-tert-butyl-4-{[(2E)-imidazolidin-2-ylidene]carbamoyl}phenyl)amino]-N-[2-(oxan-4-yl)ethyl]pyridine-4-carboxamide]	1310
CC(C)NC(=O)c1cccc(Nc2c(F)cc(C(=O)N=C3NCCN3)cc2C2CC2)c1 [Compound 91, 3-cyclopropyl-5-fluoro-N-[(2Z)-imidazolidin-2-ylidene]-4-({3-[(propan-2-yl)carbamoyl]phenyl}amino)benzamide]	2
